Test: First-in-human PET/CT dosimetry study
Assay type: in vivo
Conditions: for ED: first-in-human (clinical)
Protocol: The first-in-human use of (S)-(−)-[^18F]fluspidine was authorized by the competent authorities in Germany, the Federal Institute for Drugs and Medical Devices (Bundesamt für Arzneimittel und Medizinprodukte, BfArM) and the Federal Office for Radiation Protection (Bundesamt für Strahlenschutz, BfS) as well as by the local ethics committee and was conducted in accordance with the Declaration of Helsinki. Informed consent was obtained from four healthy volunteers (2 f, 2 m; age: 23 ± 3 years; weight: 56 ± 4 kg). The volunteers were positioned supine with the arms down in a clinical PET/CT system (Biograph 16, Siemens, Erlangen, Germany) and received an intravenous injection of 255 ± 9 MBq (S)-(−)-[^18F]fluspidine. Simultaneously, the PET scan was started. It was divided into a dynamic part up to 2 h p.i. (7 frames) and a static part up to 7 h p.i. The volunteers left the investigation table four times to stretch out. All urine was collected, weighed, and the activity was determined in a gamma-counter (Packard Cobra II 5003 Auto Gamma Counting System, GMI, Ramsey, MN, USA) cross calibrated to the PET/CT system.
The PET images were iteratively (ordered-subsets expectation maximization, OSEM) reconstructed (preclinical: 4 iterations, 6 subsets; clinical: 4 iterations, 8 subsets) and corrected for decay, randoms, scatter, and dead time, μ-maps for attenuation correction of PET-emission data were derived from the CT or MR [49] structural data, respectively. The PET data were re-binned into 10 time frames (preclinical: 4 × 5 min, 1 × 10 min, and 5 × 15 min; clinical: 4 × 12 min, 3 × 16 min, 1 × 32 min, 1 × 40 min, and 1 × 48 min), and the reconstructed PET/MRI and PET/CT images were co-registered manually with ROVER (ABX, advanced chemical compounds, Radeberg, Germany, version 2.1.17). Quantitative evaluation was performed by drawing volumes of interest (VOI) for brain, gallbladder, large intestine, small intestine, stomach, heart, kidneys, liver, lungs, pancreas, red marrow (backbone, pelvis, sternum), spleen, thyroid, testes, and urinary bladder (Figure S4). The PET derived biokinetic data is expressed as percentage of injected activity (dose) per cubic centimeter (%ID/cm^3).
The human dosimetry estimation was performed with the data extrapolated as well as the genuine human data using OLINDA/EXM software. The time-activity curves were estimated by exponential fitting and calculating the time integral, which equals the number of disintegrations (NODs) per organ during the observation period normalized to 1 Becquerel administered activity dose. […] Therefore, activity data of the urinary bladder was derived from the image for each time point. In contrast, for humans the activity concentration data of the urinary bladder was obtained in a more direct approach. At first, the activity and volume of urine was determined in the last frame of the PET scan before each micturition. Afterwards, the voided urine was collected, weighed, and the activity of three aliquots (assuming 1 mL = 1 g) determined with a gamma counter, and the activity of the whole sample estimated. The difference between imaged and sampled urine activity is equal to the residue of radioactive urine in the urinary bladder. To calculate the NOD in the human urinary bladder, the time-activity curve is integrated using a trapezoidal equation (3) %ID˜UB=1/2∑i=1n−1(%IDi+%IDi+1)(ti+1−ti) with the fraction of injected activity %IDi at the time ti and the cumulated activity of the urinary bladder i.e., the NOD %ID˜UB .
Furthermore, the NODs of the gastric system were calculated following the ICRP GI model (ICRP 30) as implemented in OLINDA 1.0. The NODs obtained either from the EXM module or the trapezoidal equation were transferred to OLINDA. The OD for the chosen hermaphroditic adult male phantom is estimated following the MIRD scheme. The S values are pre-calculated and implemented for the respective phantom in OLINDA. […]

[1] = first-in-human PET/CT, adult male model
[2] = first-in-human PET/CT, ICRP 103 weighting
[3] = four volunteers after i.v. injection

Structure (SMILES): FCC[C@@H]1OC2(CCN(Cc3ccccc3)CC2)c2ccccc21 [(S)-(−)-[^18F]fluspidine]
- ED (four healthy volunteers, ICRP 103 weighting): 21.0 ± 1.3 μSv/MBq
- ED (four healthy volunteers, ICRP 103 weighting, listed as (S)-(−)-[^18F]Fluspidine): 21.0 μSv/MBq
- OD Adrenals [1]: 15.3 μSv/MBq
- OD Brain [1]: 22.6 μSv/MBq
- OD Breasts [1]: 6.5 μSv/MBq
- OD Gallbladder Wall [1]: 60.7 μSv/MBq
- OD Heart Wall [1]: 17.7 μSv/MBq
- OD Kidneys [1]: 31.1 μSv/MBq
- OD LLI Wall [1]: 16.6 μSv/MBq
- OD Liver [1]: 76.0 μSv/MBq
- OD Lungs [1]: 28.2 μSv/MBq
- OD Muscle [1]: 7.8 μSv/MBq
- OD Osteogenic Cells [1]: 18.0 μSv/MBq
- OD Ovaries [1]: 13.8 μSv/MBq
- OD Pancreas [1]: 15.9 μSv/MBq
- OD Red Marrow [1]: 23.2 μSv/MBq
- OD Skin [1]: 5.3 μSv/MBq
- OD Small Intestine [1]: 56.9 μSv/MBq
- OD Spleen [1]: 24.0 μSv/MBq
- OD Stomach Wall [1]: 31.5 μSv/MBq
- OD Testes [1]: 8.0 μSv/MBq
- OD Thymus [1]: 7.5 μSv/MBq
- OD Thyroid [1]: 8.4 μSv/MBq
- OD Total Body [1]: 11.4 μSv/MBq
- OD ULI Wall [1]: 24.3 μSv/MBq
- OD Urinary Bladder Wall [1]: 24.7 μSv/MBq
- OD Uterus [1]: 13.0 μSv/MBq
- ED Contr. Adrenals [2]: 0.1 μSv/MBq
- ED Contr. Brain [2]: 0.2 μSv/MBq
- ED Contr. Breasts [2]: 0.8 μSv/MBq
- ED Contr. Gallbladder Wall [2]: 0.5 μSv/MBq
- ED Contr. Heart Wall [2]: 0.2 μSv/MBq
- ED Contr. Kidneys [2]: 0.3 μSv/MBq
- ED Contr. LLI Wall [2]: 1.0 μSv/MBq
- ED Contr. Liver [2]: 3.0 μSv/MBq
- ED Contr. Lungs [2]: 3.4 μSv/MBq
- ED Contr. Muscle [2]: 0.1 μSv/MBq
- ED Contr. Osteogenic Cells [2]: 0.2 μSv/MBq
- ED Contr. Ovaries [2]: 1.0 μSv/MBq
- ED Contr. Pancreas [2]: 0.1 μSv/MBq
- ED Contr. Red Marrow [2]: 2.8 μSv/MBq
- ED Contr. Skin [2]: 0.1 μSv/MBq
- ED Contr. Small Intestine [2]: 0.5 μSv/MBq
- ED Contr. Spleen [2]: 0.2 μSv/MBq
- ED Contr. Stomach Wall [2]: 3.8 μSv/MBq
- ED Contr. Testes [2]: 0.8 μSv/MBq
- ED Contr. Thymus [2]: 0.1 μSv/MBq
- ED Contr. Thyroid [2]: 0.3 μSv/MBq
- ED Contr. Total Body [2]: 0.0 μSv/MBq
- ED Contr. ULI Wall [2]: 1.5 μSv/MBq
- ED Contr. Urinary Bladder Wall [2]: 1.0 μSv/MBq
- ED Contr. Uterus [2]: 0.1 μSv/MBq
- ED ICRP 60 (first-in-human, four healthy volunteers, ICRP 60 weighting): 22.1 μSv/MBq
- adverse effects [3]: no adverse effects reported
- changes in vital signs [3]: no significant changes in vital signs
- clearance of the radioligand from organs (human TACs, brain, stomach, liver, spleen): rapidly removed from brain, stomach, liver, and spleen within one hour post injection
- actual ED from the human study in comparison to the extrapolated animal data (human vs extrapolated animal data, p < 0.001): 1.6 fold

— article PMC6273209, “Evaluation of the Enantiomer Specific Biokinetics and Radiation Doses of [^18F]Fluspidine—A New Tracer in Clinical Translation for Imaging of σ1 Receptors” (Molecules, 2016)
